The IC50 is the concentration needed to halve the response being measured.

These results are taken from patent US20230014907A1, “INHIBITORS OF APOL1 AND METHODS OF USING SAME” (Vertex Pharmaceuticals Incorporated, priority 2020, published 2023).

One assay deals with T1, G1 APOL1 (Homo sapiens, UniProt O14791, I384M/S342G).
T1 construct: expressed in transfected cells
T1 sequence (O14791 28-398 S342G/I384M): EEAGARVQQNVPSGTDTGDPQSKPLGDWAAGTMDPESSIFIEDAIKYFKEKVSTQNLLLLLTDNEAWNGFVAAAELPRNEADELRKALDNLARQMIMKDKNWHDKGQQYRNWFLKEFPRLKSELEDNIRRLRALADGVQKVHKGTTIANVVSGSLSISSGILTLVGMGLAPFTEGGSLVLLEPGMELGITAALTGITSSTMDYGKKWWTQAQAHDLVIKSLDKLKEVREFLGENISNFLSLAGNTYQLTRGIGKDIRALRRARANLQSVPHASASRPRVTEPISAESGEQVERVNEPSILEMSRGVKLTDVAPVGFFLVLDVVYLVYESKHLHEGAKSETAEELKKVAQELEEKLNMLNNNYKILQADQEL
Kind of assay: Acute APOL1 Thallium Assay with Inducible Stable Clones of HEK 293 Cells. Format: cell-based. To be noted: HEK 293 inducible stable clones, G1 APOL1; read-out: Thallium Assay (IC50). The method in brief: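 Pore activity was read as the fluorescence increase from Tl+ entering cells loaded with an AM-ester thallium indicator dye. The cells were tetracycline-inducible HEK293 T-Rex expressing G1 APOL1 (clone DC3.25), induced when plated at 26000 per well and incubated at 37° C.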

For another assay, the target named is T2, APOL1 G1 Protein (Homo sapiens, UniProt O14791, I384M/S342G).
T2 sequence (O14791 28-398 S342G/I384M): T1 sequence (O14791 28-398 S342G/I384M)
Kind of assay: Trypanosoma brucei brucei Lysis Assay Using APOL1 Recombinant Protein (AlamarBlue viability). Type of assay: cell-based. The note with it: read-out: Trypanosomal Assay (IC50). The source says:
Trypanosoma brucei brucei is a blood stream parasite to which human, gorillas and baboon are immune due to the presence of the APOL1 protein in their HDL particles. The protein is uptaken by the parasite via the TbHpHb receptor located in its flagellar pocket and is bonded by the Hpr protein contained in the HDL particles which triggers the receptor endocytosis by the parasite.
Following endocytosis, the formed vesicle containing the HDL particle matures from early to late endosome, and subsequently to lysosome. The concomitant pH change in the lumen of the vesicle triggers the insertion of the APOL1 protein into the membrane of the late endosome/lysosome and hereby triggers lysosomal membrane permeabilization and as a further downstream event, trypanosome lysis. Trypanosoma brucei brucei is sensitive to lysis by all three APOL1 variants (G0, G1, and G2).
The Trypanosoma brucei brucei lysis assay is a lysis assay of the parasite using recombinant APOL1 protein variant followed by a fluorescent detection method of viability by the addition of AlamarBlue reagent to the assay well, a general metabolic redox indicator (AlamarBlue assay).
Briefly, the AlamarBlue active compound, the resazurin, a blue, water soluble, non-toxic and cell permeable molecule, which can be followed by absorbance, is reduced by various metabolic pathways into resorufin, a red compound which can be followed by either absorbance or fluorescence. The assay allows the calculation of the percent viability (percent of living Trypanosomes remaining in each well) at the end of a lysis relative to the untreated condition by interpolation of fluorescent values (FLU) on a standard curve with a known amount of seeded trypanosome/well.
Trypanosoma brucei brucei (ATCC, Cat. No. PRA-382) • Lister 427 VSG 221 bloodstream form.
Thaw/Expansion Media (ATCC Medium 2834 Modified HMI-9 Medium)
Assay Media (No Phenol Red/No FBS): Make on Day of Use
Hypoxanthine Stock (100×)-9 (10×)
Equipment • E1-Clip Tip pipette 12 channel adjustable 2-125 μL, Cat. No. 4672070BT • ThermoFisher MultiDrop 384, Cat. No. 5840300 • Multidrop • Agilent Bravo, Cat. No. G5409A • Bravo • SpectraMax M5
Trypanosoma brucei brucei Culture
Step 2, Day 4 • Centrifuge at 800×g for 5 minutes at room temperature. • Resuspend in 1 mL media. • Make a 1:25 fold dilution (10 μL/240 μL media). • Count on a hemocytometer (after adding parasites). • Let sit for 1-2 minutes for the parasites to settle. • Count should be approximately 100 viable motile parasites/16 grid or approximately 25×10^6 parasites/flask. • Passage the parasites by adding 1×10^6 parasites/T75 flask in 20 mL media. • Passage the parasites by adding 2.33×10^6 parasites/T175 flask in 46.6 mL media. • For every T75 flask should make enough for approximately 1.5×384 well assay plates. • For every T175 flask should make enough for approximately 3.8×384 well assay plates.
Step 3, Day 6 • Centrifuge at 800×g for 5 minutes. • Resuspend in 3 mL assay media (No phenol red, no FBS) per 75 starting flask. • Resuspend in 7 mL assay media (No phenol red, no FBS) per 175 flask • Make a 1:25 fold dilution. • Count by hemocytometer. • Every T75 flask set up should have approximately 75×10^6 parasites/flask (verify doubling time=8.7 hours±1 hour). • Every T175 flask set up should have approximately 175×10^6 parasites/flask (verify doubling time=8.7 hours±1 hour). • Require 46×10^6 parasites per 384 well plate (at 120,000 parasites per well). […]
(Resazurin is reduced to fluorescent resorufin, in cell work by metabolically active cells.)

For the molecule `OCCc1c(-c2ccc(F)cc2)[nH]c2c(F)cc(F)cc12` [Compound 433, 2-[5,7-difluoro-2-(4-fluorophenyl)-1H-indol-3-yl]ethanol], the IC50 on G1 APOL1 and at APOL1 G1 Protein was < 250 nM each time.

Regarding `O=C(CCc1c(-c2ccc(F)cc2)[nH]c2ccc(F)cc12)N[C@H]1C[C@H](O)C1` [Compound 84], the half-inhibitory concentration (IC50) on G1 APOL1 and at APOL1 G1 Protein was > 1000 nM each time.

Turning to `CC1(NC(=O)CCc2c(-c3ccc(F)cc3)[nH]c3ccc(F)cc23)COC1` [Compound 16], the IC50 on G1 APOL1 is > 1000 nM; on APOL1 G1 Protein it was 250 to 1000 nM.

As to `O=C(CCc1c(-c2ccc(F)cc2)[nH]c2c(F)cc(F)cc12)NC1(C(F)(F)F)CCC1` [Compound 161], the IC50 at G1 APOL1 and on APOL1 G1 Protein was > 1000 nM each time.

Consider `CN(CCN)C(=O)CCc1c(-c2ccc(F)cc2)[nH]c2ccc(F)cc12` [Compound 37], for which the concentration for half-maximal inhibition (IC50) on G1 APOL1 and on APOL1 G1 Protein was > 1000 nM in each case.

In the case of `CC1(NC(=O)CCc2c(-c3ccc(F)cc3)[nH]c3c(F)cc(F)cc23)CCOC1` (racemic) [Compound 152], the IC50 at G1 APOL1 and on APOL1 G1 Protein was > 1000 nM throughout.

With `Cn1nnnc1NC(=O)CCc1c(-c2ccc(F)cc2)[nH]c2c(F)cc(F)cc12` [Compound 165], the IC50 on G1 APOL1 and on APOL1 G1 Protein was > 1000 nM each time.

With `O=C(CCc1c(-c2ccc(F)cc2)[nH]c2c(F)cc(F)cc12)Nc1nnco1` [Compound 151], the IC50 at G1 APOL1 and at APOL1 G1 Protein was > 1000 nM each time.

Turning to `O=C(CCc1c(-c2ccc(F)cc2)[nH]c2ccc(F)cc12)N1CCCC(O)C1` (centres unmarked) [Compound 81], the IC50 on G1 APOL1 and on APOL1 G1 Protein was > 1000 nM throughout.

`O=C(CCc1c(-c2ccc(F)cc2)[nH]c2ccc(F)cc12)N[C@H]1CC[C@@H]1O` [Compound 29]: the concentration for half-maximal inhibition (IC50) at G1 APOL1 and at APOL1 G1 Protein was 250 to 1000 nM in each case.

For the molecule `O=C(CCc1c(-c2ccc(F)cc2)[nH]c2ccc(F)cc12)NCC(F)(F)F` [Compound 39], the IC50 was 250 to 1000 nM at G1 APOL1 and > 1000 nM at APOL1 G1 Protein.

As for `O=C(CCc1c(-c2ccc(F)cc2)[nH]c2ccc(F)cc12)NC1CC1(F)F` (centres unmarked) [Compound 45], the concentration for half-maximal inhibition (IC50) at G1 APOL1 is 250 to 1000 nM; at APOL1 G1 Protein it was > 1000 nM.

Turning to `NC(=O)C(CO)NC(=O)CCc1c(-c2ccc(F)cc2)[nH]c2ccc(F)cc12` (centres unmarked) [Compound 36], the IC50 on G1 APOL1 and at APOL1 G1 Protein was > 1000 nM throughout.

Regarding `CC(C)C(CO)NC(=O)CCc1c(-c2ccc(F)cc2)[nH]c2ccc(F)cc12` (centres unmarked) [Compound 75], the IC50 on G1 APOL1 and on APOL1 G1 Protein was > 1000 nM in each case.

On to `CC(CN)NC(=O)CCc1c(-c2ccc(F)cc2)[nH]c2ccc(F)cc12` (racemic) [Compound 5], for which the IC50 at G1 APOL1 and at APOL1 G1 Protein was > 1000 nM in each case.

Turning to `O=C(CCc1c(-c2ccc(F)cc2)[nH]c2c(F)cc(F)cc12)NC1(CO)CCC1` [Compound 91, 3-[5,7-difluoro-2-(4-fluorophenyl)-1H-indol-3-yl]-N-[1-(hydroxymethyl)-cyclobutyl]propanamide], the IC50 at G1 APOL1 and on APOL1 G1 Protein was < 250 nM in each case.

Take `Cc1cccc(CNC(=O)CCc2c(-c3ccc(F)cc3)[nH]c3c(F)cc(F)cc23)n1` [Compound 183]: the IC50 on G1 APOL1 and on APOL1 G1 Protein was > 1000 nM throughout.

`O=C(CCc1c(-c2ccc(F)cc2)[nH]c2c(F)cc(F)cc12)N1CCC[C@H]1CO` [Compound 145]: the half-maximal inhibitory concentration (IC50) on G1 APOL1 and at APOL1 G1 Protein was > 1000 nM in each case.

Turning to `O=C(CCc1c(-c2ccc(F)cc2)[nH]c2c(F)cc(F)cc12)NC1(CO)CC(F)(F)C1` [Compound 122], the results for the 50% inhibitory concentration (IC50) at G1 APOL1 and at APOL1 G1 Protein were 250 to 1000 nM and > 1000 nM, respectively.

As for `COCC(C)NC(=O)CCc1c(-c2ccc(F)cc2)[nH]c2ccc(F)cc12` (racemic) [Compound 30], the IC50 at G1 APOL1 and on APOL1 G1 Protein was 250 to 1000 nM throughout.

For `O=C(CCc1c(-c2ccc(F)cc2)[nH]c2c(F)cc(F)cc12)N1CC[C@H]1CO` [Compound 138], the half-maximal inhibitory concentration (IC50) at G1 APOL1 and on APOL1 G1 Protein was > 1000 nM each time.

On to `Cc1cnc(NC(=O)CCc2c(-c3ccc(F)cc3)[nH]c3c(F)cc(F)cc23)s1` [Compound 178], for which the 50% inhibitory concentration (IC50) on G1 APOL1 and at APOL1 G1 Protein was > 1000 nM in each case.

Consider `O=C(CCc1c(-c2ccc(F)cc2)[nH]c2c(F)cc(F)cc12)NC1CCOC1` (centres unmarked) [Compound 169], for which the IC50 on G1 APOL1 and on APOL1 G1 Protein was > 1000 nM in each case.

Consider `CN(CC(N)=O)C(=O)CCc1c(-c2ccc(F)cc2)[nH]c2c(F)cc(F)cc12` [Compound 150], for which the IC50 on G1 APOL1 and on APOL1 G1 Protein was > 1000 nM each time.

`O=C(CCc1c(-c2ccc(F)cc2)[nH]c2c(F)cc(Br)cc12)N[C@H](CO)C(F)(F)F` [Compound 228]: the IC50 at G1 APOL1 and at APOL1 G1 Protein was > 1000 nM throughout.

On to `O=C(CCc1c(-c2ccc(F)cc2)[nH]c2ccc(F)cc12)N1CCCC1CO` (centres unmarked) [Compound 71], for which the IC50 on G1 APOL1 and on APOL1 G1 Protein was > 1000 nM throughout.

Turning to `O=C(CCc1c(-c2ccc(F)cc2)[nH]c2c(F)cc(F)cc12)Nc1ccncc1` [Compound 119], the IC50 at G1 APOL1 and on APOL1 G1 Protein was > 1000 nM in each case.

`O=C(CCc1c(-c2ccc(F)cc2)[nH]c2c(F)cc(F)cc12)NCc1cnn(CC(F)(F)F)c1` [Compound 186]: the IC50 at G1 APOL1 and at APOL1 G1 Protein was > 1000 nM in each case.

As to `CC(C)(C)OC(=O)NC1CCN(C(=O)CCc2c(-c3ccc(F)cc3)[nH]c3ccc(F)cc23)C1` (centres unmarked) [Compound 34], the IC50 at G1 APOL1 and on APOL1 G1 Protein was > 1000 nM each time.

Consider `O=C(NCCCc1c(-c2ccc(F)cc2)[nH]c2ccc(F)cc12)C(F)F` [Compound 506], for which the IC50 on G1 APOL1 and at APOL1 G1 Protein was 250 to 1000 nM throughout.

In the case of `O=C(CCc1c(-c2ccc(F)cc2)[nH]c2c(F)cc(F)cc12)NCc1cnn(C2CC(F)(F)C2)c1` [Compound 176], the concentration for half-maximal inhibition (IC50) at G1 APOL1 and on APOL1 G1 Protein was > 1000 nM in each case.

For the molecule `O=C(CCc1c(-c2ccc(F)cc2)[nH]c2c(F)cc(F)cc12)NC1CC1(F)F` (centres unmarked) [Compound 142], the half-maximal inhibitory concentration (IC50) on G1 APOL1 and on APOL1 G1 Protein was > 1000 nM throughout.

As to `CC(CO)N(C)C(=O)CCc1c(-c2ccc(F)cc2)[nH]c2ccc(F)cc12` (centres unmarked) [Compound 51], the 50% inhibitory concentration (IC50) at G1 APOL1 and at APOL1 G1 Protein was > 1000 nM each time.

With `O=C(CCc1c(-c2ccc(F)cc2)[nH]c2ccc(F)cc12)Nc1cn[nH]c1` [Compound 46], the IC50 at G1 APOL1 and at APOL1 G1 Protein was > 1000 nM each time.

Regarding `O=C(CCc1c(-c2ccc(F)cc2)[nH]c2c(F)cc(F)cc12)Nc1cccnc1` [Compound 174], the IC50 at G1 APOL1 and at APOL1 G1 Protein was > 1000 nM each time.

Consider `O=C(CCc1c(-c2ccc(F)cc2)[nH]c2ccc(F)cc12)NC1(c2ccccc2)CC1` [Compound 65], for which the IC50 at G1 APOL1 and on APOL1 G1 Protein was > 1000 nM each time.

With `O=C(CCc1c(-c2ccc(F)cc2)[nH]c2ccc(F)cc12)NCC1(O)CC1` [Compound 82], the IC50 at G1 APOL1 and at APOL1 G1 Protein was > 1000 nM each time.
